Measurements published in the supplement of paper PMC10331698.
± gives the standard deviation of the averaged measurements.

How the values were obtained:
Assay in all cases: level (log10 ratio to DMSO vehicle control); higher = higher biomarker level / cell amount than vehicle control
Settings in all cases: in DMSO
[1] = compound: FC(F)(F)C(F)(F)C(F)(F)CC1CO1 [1H,1H-Heptafluorobutyl epoxide]
Procedure: (§1)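 BioMAP Diversity Plus panel of 12 human primary cell co-culture systems (3C, 4H, LPS, SAg, BT, BF4T, BE3C, CASM3C, HDF3CGF, KF3CT, MyoF, Mphg). Compounds were added 1 h before stimulation and left for 24 h (MyoF 48 h; BT 72 h for soluble read-outs or 6 d for IgG). Biomarkers were read by ELISA, cytotoxicity by SRB, PBMC viability and proliferation by Alamar Blue. Each well value was divided by the mean of 8 DMSO control wells on the same plate and log10 transformed; duplicate blinded samples were tested at 4 concentrations.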

Heptafluorobutyl iodide = compound: FC(F)(F)C(F)(F)C(F)(F)CI [Heptafluorobutyl iodide]
Procedure: as §1

Octafluoroadipamide = compound: NC(=O)C(F)(F)C(F)(F)C(F)(F)C(F)(F)C(N)=O [Octafluoroadipamide]
Procedure: as §1

[2] = compound: O=C(O)C(F)(F)C(F)(F)C(F)(F)C(F)(F)C(F)(F)C(F)(F)C(F)(F)C(F)(F)C(F)(F)C(F)F [11-H-Perfluoroundecanoic acid]
Procedure: as §1

[3] = compound: O=S(=O)(F)C(F)(F)C(F)(F)C(F)(F)C(F)(F)C(F)(F)C(F)(F)C(F)(F)C(F)(F)F [Perfluorooctanesulfonyl fluoride]
Procedure: as §1

Test System	level (log10) ([1]; 6700 nM)	level (log10) ([1]; 20000 nM)	level (log10) ([1]; 60000 nM)	level (log10) (Heptafluorobutyl iodide; 6700 nM)	level (log10) (Heptafluorobutyl iodide; 20000 nM)	level (log10) (Heptafluorobutyl iodide; 60000 nM)	level (log10) (Octafluoroadipamide; 6700 nM)	level (log10) (Octafluoroadipamide; 20000 nM)	level (log10) (Octafluoroadipamide; 60000 nM)	level (log10) ([2]; 6700 nM)	level (log10) ([2]; 20000 nM)	level (log10) ([3]; 6700 nM)	level (log10) ([3]; 20000 nM)	level (log10) ([3]; 60000 nM)
3C:CD62E/E-Selectin	-0.011 ± 0.023	0.002 ± 0.013	0.0075 ± 0.0035	-0.012 ± 0.024	-0.0115 ± 0.0021	-0.0165 ± 0.03	-0.0175 ± 0.011	-0.0115 ± 0.0064	0.012 ± 0.016	-0.0045 ± 0.025	0.0205 ± 0.013	-0.006 ± 0.0057	-0.01	-0.006 ± 0.024
4H:VEGFR2	-0.012 ± 0.0071	0 ± 0.017	0.031 ± 0.11	-0.0075 ± 0.005	0.0155 ± 0.063	0.0445 ± 0.036	0.012 ± 0.05	0.025 ± 0.0057	0.0225 ± 0.03	-0.0245 ± 0.032	0.001 ± 0.047	-0.001 ± 0.03	-0.01 ± 0.021	0 ± 0.027
CASM3C:PAI-I	-0.0045 ± 0.0092	0 ± 0.0057	0.005 ± 0.017	-0.009 ± 0.0085	-0.0035 ± 0.005	-0.011 ± 0.0057	0.0005 ± 0.005	-0.0085 ± 0.012	0.0045 ± 0.0092	0.001 ± 0.0057	0.006 ± 0.0028	0.005 ± 0.0071	-0.005 ± 0.0028	0.0045 ± 0.0035
HDF3CGF:PAI-I	-0.0135 ± 0.0035	-0.0175 ± 0.0064	0.009 ± 0.025	0.0035 ± 0.043	-0.004 ± 0.03	-0.018 ± 0.027	0.018 ± 0.0099	0.018 ± 0.0014	0.009 ± 0.0014	0.018 ± 0.0099	-0.0045 ± 0.0035	0.0235 ± 0.12	0.035 ± 0.013	0.101 ± 0.033
HDF3CGF:Proliferation 72hr	-0.0905 ± 0.044	-0.0925 ± 0.047	-0.0225 ± 0.13	0.0025 ± 0.0064	-0.012 ± 0.0099	-0.0085 ± 0.039	-0.041 ± 0.052	0.0825 ± 0.05	-0.0115 ± 0.029	-0.253 ± 0.048	-0.443 ± 0.0028	-0.0015 ± 0.057	0.0385 ± 0.013	0.03 ± 0.037
lMphg:IL-1alpha	-0.012 ± 0.0071	-0.025 ± 0.0071	-0.002 ± 0.028	0.029 ± 0.027	0.0335 ± 0.03	0.0305 ± 0.019	-0.0135 ± 0.016	-0.044 ± 0.016	-0.014 ± 0.065	-0.024 ± 0.024	-0.008 ± 0.0014	0.01 ± 0.013	-0.0025 ± 0.005	0.0185 ± 0.019
MyoF:CXCL8/IL-8	-0.012 ± 0.0028	0.006 ± 0.0099	-0.021 ± 0.0042	-0.0205 ± 0.0035	-0.0475 ± 0.0092	-0.0395 ± 0.011	0.007 ± 0.028	-0.006 ± 0.011	0.0075 ± 0.016	-0.0375 ± 0.03	-0.071 ± 0.028	0.0095 ± 0.0021	0.023 ± 0.0042	0.0325 ± 0.032
3C:CXCL9/MIG	-0.005 ± 0.0071	-0.0135 ± 0.0064	-0.0035 ± 0.022	-0.01 ± 0.0028	-0.0095 ± 0.0021	0.0025 ± 0.0035	-0.002 ± 0.0028	0 ± 0.0057	0.024 ± 0.011	-0.005 ± 0.0085	-0.002	-0.008 ± 0.0099	-0.0015 ± 0.00071	0.0055 ± 0.012
HDF3CGF:CD106/VCAM-1	0.013 ± 0.0099	-0.017 ± 0.0014	-0.04 ± 0.021	0.0715 ± 0.03	0.0695 ± 0.057	0.0585 ± 0.076	-0.0005 ± 0.012	-0.0165 ± 0.035	0.01 ± 0.0099	-0.085 ± 0.051	-0.234 ± 0.0064	-0.011 ± 0.02	-0.071 ± 0.05	-0.083 ± 0.048
HDF3CGF:CXCL8/IL-8	-0.0075 ± 0.022	-0.0115 ± 0.0078	0.0005 ± 0.0078	-0.003 ± 0.0057	0.0005 ± 0.00071	0.0125 ± 0.0092	0.006 ± 0.017	0.0045 ± 0.0092	0.007 ± 0.0028	-0.009 ± 0.0071	-0.003 ± 0.016	-0.002 ± 0.0028	-0.0015 ± 0.00071	0.0085 ± 0.0021
lMphg:CCL2/MCP-1	-0.0075 ± 0.011	-0.021 ± 0.021	0.0105 ± 0.026	0.0255 ± 0.00071	-0.006 ± 0.0028	0.0135 ± 0.0021	0.0185 ± 0.016	0.0035 ± 0.0021	0.005 ± 0.025	-0.0145 ± 0.025	0.0085 ± 0.028	-0.004 ± 0.023	-0.0245 ± 0.023	-0.0165 ± 0.0021
HDF3CGF:TIMP-2	-0.0395 ± 0.16	-0.061 ± 0.11	-0.038 ± 0.1	-0.033 ± 0.0042	-0.044 ± 0.0071	-0.013 ± 0.051	-0.0695 ± 0.13	-0.035 ± 0.061	-0.002 ± 0.013	-0.0675 ± 0.046	-0.103 ± 0.025	-0.0005 ± 0.011	0.0185 ± 0.012	-0.0085 ± 0.042
KF3CT:CXCL8/IL-8	-0.021 ± 0.027	-0.0135 ± 0.03	0.0015 ± 0.0035	-0.0095 ± 0.00071	-0.0325 ± 0.005	-0.015 ± 0.016	-0.005	-0.0055 ± 0.0021	0.0095 ± 0.023	0.0005 ± 0.019	0.0445 ± 0.012	0.001 ± 0.028	0.0005 ± 0.025	0.007 ± 0.0071
HDF3CGF:CXCL10/IP-10	-0.0275 ± 0.0078	-0.0285 ± 0.053	-0.054 ± 0.054	0.0035 ± 0.012	-0.007 ± 0.011	-0.017 ± 0.014	0.011 ± 0.0028	-0.0045 ± 0.016	0.031 ± 0.03	-0.117 ± 0.011	-0.331 ± 0.0071	-0.0005 ± 0.0021	-0.015 ± 0.011	-0.012 ± 0.014
KF3CT:IL-1alpha	-0.009 ± 0.011	-0.0255 ± 0.015	0.0095 ± 0.037	-0.0025 ± 0.0078	-0.04 ± 0.0042	-0.044 ± 0.0057	0.014 ± 0.0028	0 ± 0.037	0.017 ± 0.017	-0.0255 ± 0.00071	0.0105 ± 0.04	-0.0055 ± 0.026	0.007 ± 0.013	-0.0145 ± 0.026
lMphg:M-CSF	0.0065 ± 0.013	-0.003 ± 0.011	0.003 ± 0.04	-0.026 ± 0.014	-0.0165 ± 0.005	-0.0245 ± 0.039	-0.017 ± 0.0028	-0.0065 ± 0.0035	0.0045 ± 0.00071	-0.019 ± 0.0071	-0.007 ± 0.018	-0.006 ± 0.03	-0.03 ± 0.016	-0.0335 ± 0.00071
CASM3C:IL-6	-0.0235 ± 0.022	-0.012 ± 0.0099	0.009 ± 0.047	-0.01 ± 0.011	-0.016 ± 0.0014	0.009 ± 0.031	-0.0145 ± 0.0064	-0.0185 ± 0.0035	0 ± 0.051	-0.027 ± 0.014	-0.0395 ± 0.03	-0.014 ± 0.02	-0.008 ± 0.0071	-0.0125 ± 0.061
3C:CD106/VCAM-1	-0.0315 ± 0.023	-0.0385 ± 0.013	-0.012 ± 0.011	-0.0115 ± 0.00071	-0.0045 ± 0.028	-0.0045 ± 0.0078	-0.0215 ± 0.08	-0.02 ± 0.055	0.0005 ± 0.079	-0.0105 ± 0.023	-0.011 ± 0.0099	-0.009 ± 0.0099	-0.003 ± 0.013	-0.01 ± 0.023
BE3C:MMP-1	0.003 ± 0.027	0.002 ± 0.055	0.041 ± 0.092	0 ± 0.0014	-0.0085 ± 0.005	0.02 ± 0.0099	-0.01 ± 0.0028	-0.023 ± 0.037	0.0305 ± 0.074	0.068 ± 0.013	-0.132 ± 0.012	-0.0045 ± 0.00071	-0.001 ± 0.014	-0.0005 ± 0.013
CASM3C:CXCL9/MIG	-0.01 ± 0.011	-0.0145 ± 0.023	0.004 ± 0.013	-0.0295 ± 0.0021	-0.0225 ± 0.0021	-0.002 ± 0.038	0.0115 ± 0.053	-0.004 ± 0.014	0.0215 ± 0.037	0 ± 0.0071	-0.009 ± 0.018	-0.0025 ± 0.00071	0.001 ± 0.0057	0.0075 ± 0.011
HDF3CGF:CXCL11/I-TAC	-0.0165 ± 0.063	-0.016 ± 0.093	-0.0255 ± 0.11	-0.0515 ± 0.019	-0.069 ± 0.076	-0.091 ± 0.045	-0.0025 ± 0.011	0 ± 0.023	0.018 ± 0.0014	-0.127 ± 0.023	-0.2405 ± 0.0021	-0.0035 ± 0.0021	-0.012 ± 0.0028	-0.0155 ± 0.0021
